According to ChEMBL document CHEMBL6092206, “Discovery and Characterization of BAY-184: A New Potent and Selective Acylsulfonamide-Benzofuran In Vivo-Active KAT6AB Inhibitor” (J Med Chem, 2024):
The source made the active and inactive calls. The rule behind the calls is not given here.

Tests used:
[1] = Stability of compound in borate buffer at pH 10 measured for 24 hrs by HPLC analysis; format: physicochemical; details: pH 10, 24 h
[2] = system: CAMA-1; test: Antiproliferative activity against human CAMA-1 cells assessed as inhibition of cell growth incubated for 6 days by alamar blue staining based assay relative to control; format: functional; details: time 6 day
[3] = system: MFM-223; test: Antiproliferative activity against human MFM-223 cells assessed as inhibition of cell growth incubated for 6 days by alamar blue staining based assay relative to control; format: functional; details: time 6 day
[4] = Antiproliferative activity against human HCC1500 cells assessed as inhibition of cell growth incubated for 6 days by alamar blue staining based assay relative to control; format: functional; details: time 6 day
[5] = system: MDA-MB-436; test: Antiproliferative activity against human MDA-MB-436 cells assessed as inhibition of cell growth incubated for 6 days by alamar blue staining based assay relative to control; format: functional; details: time 6 day
[6] = system: MDA-MB-231; test: Antiproliferative activity against human MDA-MB-231 cells assessed as inhibition of cell growth incubated for 6 days by alamar blue staining based assay relative to control; format: functional; details: time 6 day
[7] = Metabolic stability in mouse liver microsome assessed as clearance measured for 2 to 60 mins by LC-MS/MS analysis; format: ADME; details: microsomes, time 2-60 min
[8] = Metabolic stability in dog liver microsome assessed as clearance measured for 2 to 60 mins by LC-MS/MS analysis; format: ADME, Canis lupus familiaris; details: microsomes, time 2-60 min
[9] = Metabolic stability in rat hepatocyte assessed as clearance measured for 2 to 90 mins by LC-MS/MS analysis; format: ADME, cell-based; details: hepatocytes, time 2-90 min
[10] = Metabolic stability in dog hepatocyte assessed as clearance measured for 2 to 90 mins by LC-MS/MS analysis; format: ADME, cell-based, Canis lupus familiaris; details: hepatocytes, time 2-90 min
[11] = Metabolic stability in human liver microsome assessed as maximum bioavailability of the drug measured for 2 to 60 mins by LC-MS/MS analysis; format: ADME; details: liver microsomes, time 2-60 min, read-out: Fmax
[12] = Metabolic stability in mouse hepatocyte assessed as maximum bioavailability of the drug measured for 2 to 90 mins by LC-MS/MS analysis; format: ADME; details: hepatocytes, time 2-90 min, read-out: Fmax
[13] = Clearance in mouse at 0.5 mg/kg, iv; format: ADME, organism-based; details: in vivo
[14] = Volume of distribution at steady state in mouse at 0.5 mg/kg, iv; format: ADME, organism-based; details: in vivo, read-out: Vdss
[15] = Half life in male Wistar rat at 0.5 mg/kg, iv measured upto 24 hrs by LC-MS/S analysis; format: ADME, organism-based; details: in vivo
[16] = AUC in male Wistar rat at 0.5 mg/kg, iv measured upto 24 hrs by LC-MS/S analysis; format: ADME, organism-based; details: in vivo
[17] = Tmax in male Wistar rat at 1 mg/kg, po measured upto 24 hrs by LC-MS/S analysis; format: ADME, organism-based; details: in vivo
[18] = Plasma protein binding in human assessed as unbound fraction equilibrium dialysis based LC-MS/MS analysis; format: ADME, cell-free
[19] = system: ZR-75-1; test: Antitumor activity against human ZR-75-1 cells xenografted in po dosed female estradiol-primed NMRI mouse assessed as inhibition of tumor growth administered twice daily measured at 2 to 3 days; format: functional, organism-based; details: time 2-3 day
[20] = system: LCLC-97TM1; test: Antiproliferative activity against human LCLC-97TM1 cells assessed as inhibition of cell proliferation incubated for 6 days by alamar blue staining based assay; format: functional; details: time 6.0 day
[21] = target: Voltage-gated inwardly rectifying potassium channel KCNH2 (Homo sapiens, UniProt Q12809); test: Inhibition of hERG; format: toxicity
Chain of Voltage-gated inwardly rectifying potassium channel KCNH2 (Q12809 whole entry): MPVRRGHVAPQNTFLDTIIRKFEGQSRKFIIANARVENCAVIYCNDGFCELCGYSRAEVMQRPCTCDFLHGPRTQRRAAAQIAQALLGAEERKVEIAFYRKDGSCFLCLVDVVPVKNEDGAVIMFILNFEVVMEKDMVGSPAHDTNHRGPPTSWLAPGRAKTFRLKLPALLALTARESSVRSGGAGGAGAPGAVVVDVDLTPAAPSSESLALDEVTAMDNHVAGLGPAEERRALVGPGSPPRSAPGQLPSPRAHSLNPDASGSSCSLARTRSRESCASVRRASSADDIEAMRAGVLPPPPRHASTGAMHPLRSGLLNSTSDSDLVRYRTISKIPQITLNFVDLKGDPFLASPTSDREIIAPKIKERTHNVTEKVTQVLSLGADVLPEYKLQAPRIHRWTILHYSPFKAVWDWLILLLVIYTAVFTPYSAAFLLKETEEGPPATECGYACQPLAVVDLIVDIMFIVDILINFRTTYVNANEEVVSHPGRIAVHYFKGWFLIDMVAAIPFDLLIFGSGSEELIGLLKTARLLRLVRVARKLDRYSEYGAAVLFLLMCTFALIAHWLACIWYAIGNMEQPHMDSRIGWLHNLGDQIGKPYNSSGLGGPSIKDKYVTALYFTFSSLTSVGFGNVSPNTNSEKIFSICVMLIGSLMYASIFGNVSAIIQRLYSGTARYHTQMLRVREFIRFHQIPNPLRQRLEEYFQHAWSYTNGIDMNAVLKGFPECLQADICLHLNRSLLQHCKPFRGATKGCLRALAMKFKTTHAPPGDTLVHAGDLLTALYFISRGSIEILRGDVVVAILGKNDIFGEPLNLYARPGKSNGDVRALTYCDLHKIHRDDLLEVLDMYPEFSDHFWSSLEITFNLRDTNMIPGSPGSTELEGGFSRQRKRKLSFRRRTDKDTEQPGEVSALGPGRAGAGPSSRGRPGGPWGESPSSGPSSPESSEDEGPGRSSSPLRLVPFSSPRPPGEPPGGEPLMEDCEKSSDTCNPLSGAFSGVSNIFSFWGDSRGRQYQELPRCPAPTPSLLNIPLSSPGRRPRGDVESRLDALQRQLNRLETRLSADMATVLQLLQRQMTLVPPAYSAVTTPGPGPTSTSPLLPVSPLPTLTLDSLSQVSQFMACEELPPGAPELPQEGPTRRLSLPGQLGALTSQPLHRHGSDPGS

[22] = system: HaCaT; test: Cytotoxicity against human HaCaT cells incubated for 72 hrs; format: toxicity, cell-based
[23] = Mutagenicity in Salmonella typhimurium TA100 by Ames test; format: toxicity; details: salmonella enterica subsp. enterica serovar typhimurium
[24] = target: T1, Histone acetyltransferase KAT8 (Homo sapiens, UniProt Q9H7Z6); test: Inhibition of full length N-terminal GST-tagged human recombinant KAT8 (174 to 449 residues) using H4-derived peptide as substrate incubated for 60 mins in presence of AcCoA by TR-FRET assay; set-up: species or system Sf9
T1 sequence (Q9H7Z6 whole entry): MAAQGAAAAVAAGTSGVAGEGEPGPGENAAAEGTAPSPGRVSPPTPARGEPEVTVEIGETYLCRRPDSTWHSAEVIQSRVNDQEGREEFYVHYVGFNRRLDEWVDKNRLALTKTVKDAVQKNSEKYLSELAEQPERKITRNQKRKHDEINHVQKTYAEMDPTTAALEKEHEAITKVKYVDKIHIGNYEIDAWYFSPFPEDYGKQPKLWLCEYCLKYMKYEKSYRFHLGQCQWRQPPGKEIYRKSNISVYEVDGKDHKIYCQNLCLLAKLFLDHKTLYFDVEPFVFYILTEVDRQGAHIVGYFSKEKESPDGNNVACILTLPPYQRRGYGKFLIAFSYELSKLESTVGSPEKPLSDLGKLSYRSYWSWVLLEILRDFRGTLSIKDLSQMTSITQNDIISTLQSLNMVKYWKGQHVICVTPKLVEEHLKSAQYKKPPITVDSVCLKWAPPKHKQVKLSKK

Stability [1]: Stable
CLH [7]: 63.3 mL/min/kg
CLH [8]: 6.83 mL/min/kg
CLH [9]: 41.7 mL/min/kg
CLH [10]: 16.5 mL/min/kg
Fh [11]: 41%
Fh [12]: 33%
clearance [13]: 9.33 mL/min/kg
Vd [14]: 0.32 L/kg
t1/2 [15]: 56.4 min
AUC [16]: 5.5 kg·h/L
Tmax [17]: 30 min
Fu [18]: 0.042%
IC50 [24]: > 10 µM
SMILES: CN(C)c1ccc2cc(C(=O)NS(=O)(=O)c3ccccc3-c3ccccc3)oc2c1
inhibition (INH) [2]: 68%
inhibition (INH) [3]: 61%
inhibition (INH) [4]: 49%
inhibition (INH) [5]: 0%
inhibition (INH) [6]: 0%
Activity [19]: Dose-dependent-effect
Activity [20]: Active
inhibition (INH) [21]: Not_active
Activity [22]: Non-toxic
Activity [23]: Non-toxic
